Measurements from paper PMC6413339 (EBioMedicine, 2019).

Key:
[1] = tested on: MOLM-14 (ITD, F691 L) cells; test: Antiproliferative activity (CellTitre-Blue, 72 h); assay type: cell-based, human; conditions: 72 h incubation, triplicates; listed as 7 (HSN431); read-out: IC50 (mean ±SD, nM) MOLM-14 (ITD, F691 L)
In short: (§1)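 Cells seeded at 2.0 × 10^4 cells/mL, then exposed in triplicate to serial dilutions (top concentration 10 μM) for 72 h.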

MOLM-14 cells = test: Antiproliferative activity (CellTitre-Blue, 72 h); assay type: cell-based, human; conditions: Homo sapiens, MOLM-14; 72 h incubation, triplicates; read-out: IC50 (mean ±SD, nM) MOLM-14
In short: as §1

**Q.** Which IC50 [1] does the source give for `Cc1ncc(C(=O)Nc2ccc(CN3CCN(C)CC3)c(C(F)(F)F)c2)cc1C#Cc1c(N)ncc2ccc(F)cc12` [Compound 7] here?
**A.** The IC50 was 3.3 ± 0.3 nM.

**Q.** And the IC50 (MOLM-14 cells)?
**A.** Its IC50 is 0.5 ± 0.01 nM.
